Results reported in patent publication US20080293820A1, “METHODS FOR IMPROVING PHYSICAL FUNCTION IN FIBROMYALGIA” (Cypress Bioscience, Inc., priority 2007, published 2008).
Where “and” joins values, the source holds several entries; their conditions need not be identical. Identical values can stand only once. Counter-ions that a name gives are not always drawn.

System: patients who met the 1990 ACR criteria for fibromyalgia syndrome
Assay: Example 1: multi-center double-blind, randomized, placebo-controlled study of milnacipran for the treatment of fibromyalgia (888 patients)
Format: in vivo, human
Parameters: Mean Change from Baseline in PFI SF-36 domain score / Mean Change from Baseline in PAIN SF-36 domain score / Mean Change from Baseline in GHP SF-36 domain score / Mean Change from Baseline in ROLP SF-36 domain score: scale not given here
Details: for responders for the treatment of the pain of fibromyalgia (pain composite), % = m/n: observed cases (OC), hydrochloride; for odds ratio of response / number of responders m (pain of fibromyalgia): OC; for Mean Change from Baseline in GHP SF-36 domain score / Mean Change from Baseline in PAIN SF-36 domain score / Mean Change from Baseline in PCS Score / Mean Change from Baseline in PFI SF-36 domain score / Mean Change from Baseline in ROLP SF-36 domain score: Observed Cohort
Experimental: The primary outcome was a composite responder analysis assessing response rate at weeks 14 and 15, and the secondary analysis assessed response rate at weeks 26 and 27.
This was a multi-center, randomized, double-blinded, placebo-controlled three-arm study, which enrolled 888 patients who met the 1990 ACR criteria for fibromyalgia syndrome as well as the more detailed admission criteria outlined in the protocol.
Patients were randomized to receive either placebo, 100 mg/day milnacipran, or 200 mg/day milnacipran in a ratio of a 1:1:2. All randomized medications (placebo and milnacipran) were administered in a split-dose (BID) fashion. The doses were administered in a dose escalation regimen as outlined below:
All patients were scheduled to receive a total of 24 weeks of milnacipran or placebo after the 3 weeks of dose escalation steps, for a total of 27 weeks of milnacipran or placebo exposure.
The primary endpoint of this study was a composite responder analysis implementing analysis of three domains of interest, evaluated at […]. The domains measured were:
1) pain (measured by an electronic diary as a daily recall pain score, calculated to weekly average scores)
2) patient global (measured by the PGIC, 1-7 scale)
3) physical function (measured by the SF-36 PCS).
For the primary analysis, the pain domain score was determined by a calculation that compared the average of treatment weeks 14 and 15 to the two baseline weeks, and treatment weeks 26 and 27 vs. baseline for the secondary analysis. The last observation was carried forward if neither the week 14 nor week 15 (or week 26/27) patient self-reported pain score is available to compare to the baseline value.
A responder was defined as a subject who experienced a greater than 30% reduction in pain from baseline and improvement on the PGIC.
At three months, the percentage of responders was: 35.44% (56/158) in the placebo group; 53.33% (72/135) (p=0.001) in the milnacipran 100 mg/day group; and 55.00% (143/260) (p<0.001) in the milnacipran 200 mg/day group. At six months, the percentage of responders was: 32.86% (46/140) in the placebo group; 49.59% (60/121) (p=0.002) in the milnacipran 100 mg/day group; and 51.74% (119/230) (p<0.001) in the milnacipran 200 mg/day group. See Table 1 for a summary of the results in the Intent-to-Treat Population and Table 2 for a summary of the Last Observation Carried Forward (LOCF), Baseline Observation Carried Forward (BOCF) and study completer (OC) populations. LOCF is an analysis in which observations are carried forward to the last time point for patients who dropped out. The LOCF analysis treats the carried-forward data as observed data at the last time point. BOCF is an analysis that requires the patient remain active in the trial to be evaluated for response. If a patient withdraws from the trial for any reason they are classed as a non-responder irregardless of their pain and global scores at the time of withdrawal.
The following domains were used to evaluate the PCS score: physical function (PFI), role physical (ROLP), bodily pain (PAIN), general health profile (GHP), […] (VIT), social role (SOC), role emotional (ROLE) and mental health index (MHI). The PFI, ROLP, PAIN and GHP domains are positively weighted in the PCS calculation, and the VIT, SOC, ROLE and MHI domains are negatively weighted in the PCS calculation (Normative Value=50, SD=10).

## CCN(CC)C(=O)C1(c2ccccc2)CC1CN (racemic) [milnacipran, Z-2-aminomethyl-1-phenyl-N,N-diethylcyclopropanecarboxamide hydrochloride]
100 mg or 200 mg
  physical function in patients with fibromyalgia compared to placebo (in words): surprisingly and effectively improves physical function
100 mg/day, treatment weeks 14-15 (3 months)
  responders for the treatment of the pain of fibromyalgia (pain composite), % = m/n: 53.33% and 53.3%
100 mg/day, treatment weeks 14-15 (3 months), listed as Milnacipran
  responders for the treatment of the pain of fibromyalgia (pain composite), % = m/n: 53.33%
100 mg/day, treatment weeks 26-27 (6 months)
  responders for the treatment of the pain of fibromyalgia (pain composite), % = m/n: 49.59% and 49.6%
100 mg/day, treatment weeks 26-27 (6 months), listed as Milnacipran
  responders for the treatment of the pain of fibromyalgia (pain composite), % = m/n: 49.59%
100 mg/day, weeks 14-15
  odds ratio of response: 2.10
100 mg/day, weeks 14-15, n=135
  number of responders m (pain of fibromyalgia): 72
100 mg/day, weeks 26-27
  odds ratio of response: 1.96
100 mg/day, weeks 26-27, n=121
  number of responders m (pain of fibromyalgia): 60
100 mg, 3 month
  Pain Composite responder rate, Sensitivity Analysis II: 32.%
  Pain Composite responder rate, Sensitivity Analysis III: 32.1%
  Pain Composite responder rate, Sensitivity Analysis I (BOCF): 32.1%
  Individual component responder rate: PGIC (LOCF): 54.0%
  Individual component responder rate: Pain (LOCF): 35.7%
  Pain Composite responder rate, Primary Analysis (LOCF): 33.5%
100 mg, 6 month
  Pain Composite responder rate, Sensitivity Analysis II: 27.2%
  Pain Composite responder rate, Sensitivity Analysis III: 29.5%
  Pain Composite responder rate, Sensitivity Analysis I (BOCF): 26.8%
  Individual component responder rate: PGIC (LOCF): 49.6%
  Individual component responder rate: Pain (LOCF): 35.7%
  Pain Composite responder rate, Primary Analysis (LOCF): 30.8%
100 mg, Tx 3
  Mean Change from Baseline in GHP SF-36 domain score: 5.9
  Mean Change from Baseline in PAIN SF-36 domain score: 11.8
  Mean Change from Baseline in PCS Score: 3.6
  Mean Change from Baseline in PFI SF-36 domain score: 6.4
  Mean Change from Baseline in ROLP SF-36 domain score: 12.3
100 mg, Tx 7
  Mean Change from Baseline in GHP SF-36 domain score: 6.3
  Mean Change from Baseline in PAIN SF-36 domain score: 15.0
  Mean Change from Baseline in PCS Score: 4.6
  Mean Change from Baseline in PFI SF-36 domain score: 7.6
  Mean Change from Baseline in ROLP SF-36 domain score: 16.4
100 mg, Tx 11
  Mean Change from Baseline in GHP SF-36 domain score: 8.1
  Mean Change from Baseline in PAIN SF-36 domain score: 19.4
  Mean Change from Baseline in PCS Score: 5.9
  Mean Change from Baseline in PFI SF-36 domain score: 10.6
  Mean Change from Baseline in ROLP SF-36 domain score: 18.6
100 mg, Tx 15
  Mean Change from Baseline in GHP SF-36 domain score: 7.8
  Mean Change from Baseline in PAIN SF-36 domain score: 18.1
  Mean Change from Baseline in PCS Score: 6.2
  Mean Change from Baseline in PFI SF-36 domain score: 11.4
  Mean Change from Baseline in ROLP SF-36 domain score: 19.3
200 mg/day, treatment weeks 14-15 (3 months)
  responders for the treatment of the pain of fibromyalgia (pain composite), % = m/n: 55.0%
200 mg/day, treatment weeks 14-15 (3 months), listed as Milnacipran
  responders for the treatment of the pain of fibromyalgia (pain composite), % = m/n: 55.00%
200 mg/day, treatment weeks 26-27 (6 months)
  responders for the treatment of the pain of fibromyalgia (pain composite), % = m/n: 51.74% and 51.7%
200 mg/day, treatment weeks 26-27 (6 months), listed as Milnacipran
  responders for the treatment of the pain of fibromyalgia (pain composite), % = m/n: 51.74%
200 mg/day, weeks 14-15
  odds ratio of response: 2.20
200 mg/day, weeks 14-15, n=260
  number of responders m (pain of fibromyalgia): 143
200 mg/day, weeks 26-27
  odds ratio of response: 2.20
200 mg/day, weeks 26-27, n=230
  number of responders m (pain of fibromyalgia): 119
200 mg, 3 month
  Pain Composite responder rate, Sensitivity Analysis II: 32.7%
  Pain Composite responder rate, Sensitivity Analysis III: 32.4%
  Pain Composite responder rate, Sensitivity Analysis I (BOCF): 32.4%
  Individual component responder rate: PGIC (LOCF): 50.6%
  Individual component responder rate: Pain (LOCF): 38.3%
  Pain Composite responder rate, Primary Analysis (LOCF): 34.9%
200 mg, 6 month
  Pain Composite responder rate, Sensitivity Analysis II: 28.6%
  Pain Composite responder rate, Sensitivity Analysis III: 29.9%
  Pain Composite responder rate, Sensitivity Analysis I (BOCF): 27.0%
  Individual component responder rate: PGIC (LOCF): 49.9%
  Individual component responder rate: Pain (LOCF): 35.4%
  Pain Composite responder rate, Primary Analysis (LOCF): 32.2%
200 mg, Tx 3
  Mean Change from Baseline in GHP SF-36 domain score: 6.0
  Mean Change from Baseline in PAIN SF-36 domain score: 12.5
  Mean Change from Baseline in PCS Score: 3.6
  Mean Change from Baseline in PFI SF-36 domain score: 8.2
  Mean Change from Baseline in ROLP SF-36 domain score: 13.0
200 mg, Tx 7
  Mean Change from Baseline in GHP SF-36 domain score: 8.5
  Mean Change from Baseline in PAIN SF-36 domain score: 18.6
  Mean Change from Baseline in PCS Score: 5.9
  Mean Change from Baseline in PFI SF-36 domain score: 11.0
  Mean Change from Baseline in ROLP SF-36 domain score: 19.0
200 mg, Tx 11
  Mean Change from Baseline in GHP SF-36 domain score: 7.7
  Mean Change from Baseline in PAIN SF-36 domain score: 16.8
  Mean Change from Baseline in PCS Score: 5.6
  Mean Change from Baseline in PFI SF-36 domain score: 10.7
  Mean Change from Baseline in ROLP SF-36 domain score: 18.4
200 mg, Tx 15
  Mean Change from Baseline in GHP SF-36 domain score: 8.2
  Mean Change from Baseline in PAIN SF-36 domain score: 19.3
  Mean Change from Baseline in PCS Score: 6.1
  Mean Change from Baseline in PFI SF-36 domain score: 11.9
  Mean Change from Baseline in ROLP SF-36 domain score: 19.9
